Reference: PubChem BioAssay (NCI)
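Compound exposure: 48 hours, 5 concentrations, 96-well plates. GI50 = concentration required for 50% inhibition of growth. TGI: total growth inhibition.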

Assays:
Assay in all cases: DTP human tumour cell line panel, 48 h
RPMI-8226 leukemia = test system: RPMI-8226 leukemia
MDA-MB-231 breast = test system: MDA-MB-231 breast
CAKI-1 renal = test system: CAKI-1 renal
SF-295 CNS = test system: SF-295 CNS
SF-268 CNS = test system: SF-268 CNS
SNB-19 CNS = test system: SNB-19 CNS
MALME-3M melanoma = test system: MALME-3M melanoma
A498 renal = test system: A498 renal
786-0 renal = test system: 786-0 renal
UACC-257 melanoma = test system: UACC-257 melanoma

SMILES	TGI (RPMI-8226 leukemia) [µM]	TGI (MDA-MB-231 breast) [µM]	TGI (CAKI-1 renal) [µM]	TGI (SF-295 CNS) [µM]	TGI (SF-268 CNS) [µM]	TGI (SNB-19 CNS) [µM]	TGI (MALME-3M melanoma) [µM]	TGI (A498 renal) [µM]	TGI (786-0 renal) [µM]	TGI (UACC-257 melanoma) [µM]	GI50 (RPMI-8226 leukemia) [µM]	GI50 (MDA-MB-231 breast) [µM]	GI50 (SF-295 CNS) [µM]	GI50 (SF-268 CNS) [µM]	GI50 (SNB-19 CNS) [µM]	GI50 (MALME-3M melanoma) [µM]	GI50 (A498 renal) [µM]	GI50 (786-0 renal) [µM]	GI50 (UACC-257 melanoma) [µM]	GI50 (CAKI-1 renal) [µM]
O=C(/C=C/c1ccc(OCC(=O)N2CCN(c3ccccc3)CC2)cc1)c1ccc(Cl)cc1	> 100	> 86.3	> 100	54.7	> 92.7	50.7	> 100	60.3	73.7	> 100	–	–	–	–	–	–	–	–	–	–
CCCC[C@H]1C(=O)O[C@H](C)[C@H](NC(=O)c2cccc(NC=O)c2O)C(=O)O[C@@H](C)[C@@H]1OC(=O)CC(C)C	24.4	32.8	40.9	21	35.5	63.1	50.9	30	35	69.6	–	–	–	–	–	–	–	–	–	–
C=C1C(=O)O[C@H]2[C@H]1CC/C(COC(=O)NCc1cc3ccccc3[nH]1)=C\CC[C@@]1(C)O[C@@H]21	3.27	3.57	–	20.9	5.4	20.4	3.58	23.4	3.52	4.61	0.604	1.65	8.23	2.08	5.62	1.81	10.9	1.76	2.11	–
CC(C)(C)N1CCC1C(N)=O (configuration not stated)	> 100	> 100	> 100	> 100	> 100	> 100	> 100	> 100	> 100	> 100	> 100	> 100	> 100	> 100	> 100	> 100	> 100	> 100	> 100	> 100
C=C1[C@@H](C)[C@H]2[C@H](Cc3ccccc3)NC(=O)[C@]23OC(=O)/C=C/[C@H](O)CCC[C@@H](C)C/C=C/[C@H]3[C@@H]1O	39.6	> 100	4.51	53.5	73.6	64.1	> 89	16.5	> 100	59.9	–	–	–	–	–	–	–	–	–	–
O=c1cc(C(F)(F)F)c2cc3c(cc2o1)NCCC3	> 100	> 100	> 100	> 100	> 100	91.7	> 100	> 100	> 100	> 100	–	–	–	–	–	–	–	–	–	–
COc1ccc(-n2c(SCc3cc(OC)c(OC)c(OC)c3)nc3ccc(C)cc3c2=O)c(OC)c1	> 100	> 100	> 100	> 100	> 100	> 100	> 100	40.3	> 100	> 100	2.44	4.15	3.22	7.88	6.99	2.97	2.25	4.99	7.81	2.97
C(=N\Nc1ccccn1)/c1ccccn1	> 100	> 100	> 50.7	> 41.3	> 23.4	> 100	2.69	–	–	–	6.17	0.501	0.359	0.309	0.547	0.293	0.273	0.301	0.453	0.257
O=C(O)c1cc2ccccc2c(O)c1O	> 76.1	32.7	33.9	29.4	32	35.8	3.78	51.7	27.6	23.1	–	–	–	–	–	–	–	–	–	–
CC(=O)Nc1ccc(/C=C/[N+](=O)[O-])cc1	4.73	5.12	2.78	14	11.2	20.5	17.7	15.2	7.61	17	–	–	–	–	–	–	–	–	–	–
NC(=O)c1cnc(N[C@@H]2CCCC[C@@H]2N)nc1Nc1cccc(-n2nccn2)c1	23	17.3	8.09	26.7	19.7	25	10.4	17.4	17.6	4.49	6.7	4.13	13.3	5.82	10.7	3.06	4.62	5.57	2.02	2.47
O=c1cccc(C#CC#C[C@H]2O[C@@H]2CO)o1	0.331	1.02	0.359	3.77	7.51	14.4	–	4.34	1.54	2.91	0.101	0.419	1.7	2.49	6.24	–	2.03	0.637	1.16	0.189
CCN(CC)c1ccc(/C=C\c2cc(C)c3cc(C)ccc3n2)cc1	8.7	> 100	> 100	> 100	> 100	> 100	> 100	8.33	> 100	–	3.13	16.2	4.19	6.48	51.7	4.68	2.19	3.98	–	5.55
CC[C@]1(O)CC2CN(CCc3c([nH]c4ccccc34)[C@@](C(=O)OC)(c3cc4c(cc3OC)N(C)[C@H]3[C@@](O)(C(=O)OC)[C@H](OC(C)=O)[C@]5(CC)C=CCN6CC[C@]43[C@@H]65)C2)C1 (some centres not stated)	8.48	0.417	21.6	6.03	8.08	15.6	11.8	0.0994	3.13	–	< 0.005	< 0.005	< 0.005	< 0.005	< 0.005	< 0.005	0.00547	< 0.005	–	0.0804
COCCn1cc(-c2csc(-c3c[nH]c4ccccc34)n2)c2cccnc21	–	> 100	> 100	> 100	> 100	> 100	> 100	9.56	> 100	> 100	–	5.05	3.35	6.98	16.2	3.58	3.03	6.25	> 100	8.36
